Results from PMC5404542, “In Vitro and In Vivo Antifungal Profile of a Novel and Long-Acting Inhaled Azole, PC945, on Aspergillus fumigatus Infection” (Antimicrobial Agents and Chemotherapy, 2017).
pIC50, pKd, pKi: −log10 of the molar value. Converted amounts (≈) assume the structure as drawn. “And” between values parts separate entries of the source, which are not always exact repeats. Identical values can stand only once. Like-named read-outs stand apart in the source and are kept apart here.

Assays:
[1] = system: Aspergillus flavus (AFL8, NRRC3357); test: MIC, EUCAST; format: cell-based; settings: 2 strains, EUCAST, mean isolate MIC, read-out: MIC
[2] = system: Cryptococcus gattii (clinical isolate); test: MIC, EUCAST; format: cell-based; settings: 1 strain
AfCYP51A = AfCYP51A (Aspergillus fumigatus, UniProt Q4WNT5); test: CYP51 reconstitution assay (sterol 14α-demethylase activity); format: biochemical; set-up: made in house; host or cells: Escherichia coli (membrane fraction)
Sequence of AfCYP51A (Q4WNT5 whole entry): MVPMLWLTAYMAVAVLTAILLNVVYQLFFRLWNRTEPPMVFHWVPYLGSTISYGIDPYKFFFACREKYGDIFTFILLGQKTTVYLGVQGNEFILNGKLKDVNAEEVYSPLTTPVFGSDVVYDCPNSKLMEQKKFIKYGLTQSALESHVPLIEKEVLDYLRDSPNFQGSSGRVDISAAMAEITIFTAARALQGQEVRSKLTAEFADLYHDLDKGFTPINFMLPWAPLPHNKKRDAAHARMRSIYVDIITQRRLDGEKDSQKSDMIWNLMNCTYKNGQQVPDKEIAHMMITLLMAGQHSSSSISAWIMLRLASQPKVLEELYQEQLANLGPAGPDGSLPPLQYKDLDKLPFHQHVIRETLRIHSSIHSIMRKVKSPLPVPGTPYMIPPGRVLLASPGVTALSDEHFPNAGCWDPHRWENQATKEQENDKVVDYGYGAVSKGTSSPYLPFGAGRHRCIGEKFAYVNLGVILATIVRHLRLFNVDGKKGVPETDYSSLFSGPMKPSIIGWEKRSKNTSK
Description: A CYP51 reconstitution assay system was used to determine 50% inhibitory concentrations (IC50s) ([37]). Test agent was added to a mixture of 0.5 μM CYP51, 1 μM A. fumigatus cytochrome P450 reductase isoenzyme 1 (AfCPR1), 50 μM eburicol, 4% (wt/vol) 2-hydroxypropyl-β-cyclodextrin, 0.4 mg ml^−1 isocitrate dehydrogenase, 25 mM trisodium isocitrate, 50 mM NaCl, 5 mM MgCl2, and 40 mM 3-(N-morpholino) propanesulfonic acid (MOPS) (pH ∼7.2). The mixtures were then incubated at 37°C for 10 min prior to initiation with 4 mM β-NADPHNa4 followed by shaking for 20 min at 37°C. Sterol metabolites were recovered by extraction with ethyl acetate followed by derivatization with 0.1 ml N,O-bis(trimethylsilyl)trifluoroacetamide:trimethylchlorosilane (99:1) and 0.3 ml anhydrous pyridine prior to analysis by gas chromatography-mass spectrometry.

[3] = system: Candida albicans (20240.047, ATCC 10231); test: MIC, CLSI; format: cell-based; settings: ATCC10231, 2 strains, CLSI, mean isolate MIC, read-out: MIC (the MIC given is the MIC50)
[4] = system: A. fumigatus hyphae (NCPF2010); test: Persistence of action on A. fumigatus hyphae (resazurin-based microtiter assay); settings: for IC50: Aspergillus fumigatus, NCPF2010, 16 h, read-out: Hyphae IC50, No washout; for Hyphae Fold change: washout versus no washout
Description: (§1) The persistence of action of test agents was calculated for A. fumigatus hyphae (NCPF2010). […] The plates were incubated for exactly 20 min at 35°C and 5% CO2. After the incubation time had elapsed, all wells on the designated washout plate were aspirated, and growth medium (100 μl/well) was added across the plate. […] Resazurin (0.04%; diluted in growth medium) was added to all wells of both nonwashout and washout plates (5 μl/well) to give a final concentration of 0.002% resazurin. The plates were incubated at 35°C and 5% CO2 for 16 h. […] The percent inhibition for each well was calculated, and the IC50 was calculated from the concentration-response curve generated for each test compound by use of a four-parameter logistic equation (Dotmatics, Bishops Stortford, United Kingdom).

[5] = system: Rhizopus oryzae (ATCC 11145); test: MIC, CLSI; format: cell-based
[6] = system: Aspergillus terreus (AT49, AT7130); test: MIC, EUCAST; format: cell-based; settings: 2 strains, EUCAST, mean isolate MIC, read-out: MIC
[7] = system: A. fumigatus hyphae (NCPF2010)
Description: as §1

[8] = system: AR Candida albicans (20183.073, 20186.025); test: MIC, CLSI; format: cell-based; settings: read-out: MIC (the MIC given is the MIC50)
A. fumigatus (NCPF2010) = test: A. fumigatus cell-based ergosterol assay; set-up: species or system Aspergillus fumigatus; settings: for IC50: Aspergillus fumigatus, NCPF2010, 24 h, normalized by crystal violet, read-out: IC50, inhibition of ergosterol production
Description: After incubation for 24 h at 35°C, medium was removed from all wells and replaced with reaction buffer (Amplex red cholesterol assay kit; Thermo Fisher) and Amplex red solution. Plates were incubated for 30 min at 37°C, protected from light, after which fluorescence was quantified using a spectrophotometer. Medium was removed from all wells and replaced with crystal violet solution (1% [vol/vol]), and plates were incubated at room temperature on a shaker for 30 min. Plates were washed three times with phosphate-buffered saline (PBS), and sodium dodecyl sulfate solution (0.1% [vol/vol]) was added across the plate to lyse the cells. After incubation at room temperature for 1 h, the absorbance was measured by determining the OD590 by use of a spectrophotometer.

A. fumigatus ATCC 204305 = test: MIC with and without BSA supplementation, quality control strain; settings: Aspergillus fumigatus
Description: Conidia were added across the plate to a final concentration of 1 × 10^5 ml^−1. […] Determination of antifungal activity against 50 A. fumigatus clinical isolates from St. Louis Hospital (Paris, France) was performed with 96-well plates, using the modified EUCAST method in the presence of 0.5% BSA as described above. Antifungal susceptibility testing of 46 A. fumigatus isolates (obtained from the NW England Mycology Reference Centre) was performed by Evotec UK Ltd. (Manchester, United Kingdom) according to EUCAST guidelines.

[9] = system: Chaetomium globosum (ATCC 44699); test: MIC, CLSI; format: cell-based; settings: ATCC44699, 1 strain
[10] = system: BEAS2B cells infected with A. fumigatus; test: Persistence of action on bronchial epithelial cells (galactomannan in supernatant); format: cell-based, Aspergillus fumigatus; settings: for IC50: Aspergillus fumigatus, BEAS-2B
Description: The persistence of action of test agents was evaluated on immortalized bronchial epithelial cells (BEAS2B cells). […] Test and reference articles or undiluted DMSO (as vehicle) (0.5 μl/well) was added to the appropriate wells of the washout plate to give a final concentration of 0.5% DMSO. The plate was incubated for exactly 1 h at 37°C and 5% CO2. After the incubation time had elapsed, all wells on the washout plate were aspirated, and growth medium (100 μl/well) was added across the plate. After 24 h of incubation at 37°C, test and reference articles or undiluted DMSO (as vehicle) (0.5 μl/well) was added to the appropriate wells of the nonwashout plate to give a final concentration of 0.5% DMSO. The plate was incubated for exactly 1 h at 37°C and 5% CO2, after which A. fumigatus conidia were added across both plates to a final concentration of 1 × 10^3/well.

[11] = system: Gibberella zeae (Fusarium graminearum) (ATCC 16106); test: microbe, parasite or virus in culture; format: cell-based; settings: ATCC16106
[12] = system: Rhizomucor pusillus (ATCC 16458); test: MIC, CLSI; format: cell-based; settings: ATCC16458, 1 strain
[13] = system: Cryptococcus neoformans (ATCC 24067); test: MIC, CLSI; format: cell-based; settings: for MIC: Cryptococcus neoformans, ATCC24067, 1 strain, CLSI, read-out: MIC
[14] = system: A. fumigatus (ATCC 13073 [strain NIH 5233]); test: In vivo antifungal activity, intranasal treatment of temporarily neutropenic immunocompromised mice; settings: for incidence of rolling behavior: 14 μg/mouse intranasally once daily
Description: The mice were reared on a standard diet and tap water ad libitum. […] Conidia were aseptically dislodged from the agar plates and suspended in sterile distilled water with 0.05% Tween 80 and 0.1% agar. […] On day 0, 30 μl of the conidial suspension was administered intranasally.
Test agents suspended in physiological saline were administered daily intranasally (35 μl) on days 1 to 6, and the survival of animals was recorded for 7 days. […] Deaths and the body weights of surviving animals were monitored daily. A body weight loss of >20% compared to an animal's weight on day 1 and mouse death were both defined as “dropout” events. Animals that lost >20% of their initial body weight were sacrificed. […] Bronchoalveolar lavage fluid (BALF) was collected on day 7 postinfection or on the day that the mouse dropped out of the study. The Aspergillus GM concentration in BALF was determined by use of Platelia GM-EIA kits (Bio-Rad Laboratories). The value was provided as the “cutoff index” (COI), which was calculated by the following formula: COI = OD in sample/OD in cutoff control (provided by the kit).

AfCYP51B = biological target: T1, AfCYP51B (Aspergillus fumigatus, UniProt E9QY26); test: A. fumigatus CYP51 binding assay (ligand titration, type II difference spectra); settings: for pKd: 4 μM purified AfCYP51B
T1 construct: made in house
T1 sequence (E9QY26 whole entry): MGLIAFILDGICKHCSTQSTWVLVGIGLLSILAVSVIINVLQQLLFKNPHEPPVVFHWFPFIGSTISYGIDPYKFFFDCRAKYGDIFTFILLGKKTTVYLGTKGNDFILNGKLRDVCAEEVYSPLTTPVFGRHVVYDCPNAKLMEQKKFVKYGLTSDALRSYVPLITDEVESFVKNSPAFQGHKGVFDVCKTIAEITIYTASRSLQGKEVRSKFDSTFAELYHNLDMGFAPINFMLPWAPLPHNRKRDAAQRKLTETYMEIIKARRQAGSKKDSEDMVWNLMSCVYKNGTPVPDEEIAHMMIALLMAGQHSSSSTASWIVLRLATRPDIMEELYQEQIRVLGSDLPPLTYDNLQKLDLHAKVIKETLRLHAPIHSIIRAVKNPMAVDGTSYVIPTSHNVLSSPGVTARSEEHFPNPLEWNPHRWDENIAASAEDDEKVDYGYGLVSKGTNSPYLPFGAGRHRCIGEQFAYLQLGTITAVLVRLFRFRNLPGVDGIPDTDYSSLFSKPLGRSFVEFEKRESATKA
Description: A. fumigatus CYP51 binding properties were determined as described by Warrilow et al. ([35]). Test agents were titrated against 4 μM recombinant A. fumigatus CYP51A or CYP51B protein, and binding saturation curves were constructed from the change in the absorbance between the spectral peak and the trough. A rearrangement of the Morrison equation was used to determine the dissociation constant (Kd) values when ligand binding was tight ([36]).

[15] = Rhizopus arrhizus, ATCC11145, 1 strain, read-out: MIC
[16] = 1 h contact before infection, GM readout after 24 h, read-out: BEAS2B cells IC50, No washout
[17] = 1 h contact, 24-h washout prior to infection, GM readout, read-out: BEAS2B cells IC50, Washout
[18] = 0.56 μg/mouse intranasally once daily days 1 to 6
[19] = 2.8 μg/mouse intranasally once daily days 1 to 6
[20] = 14 μg/mouse intranasally once daily days 1 to 6
[21] = 70 μg/mouse intranasally once daily days 1 to 6

Row | Compound | MIC [1] [ng/mL] | MIC [2] [ng/mL] | pIC50 (AfCYP51A) | pKi (AfCYP51A) | MIC50 [3] [ng/mL] | IC50 [4] [ng/mL] | MIC ([5]; 1 strain) [ng/mL] | MIC [5, 15] [ng/mL] | MIC [6] [ng/mL] | IC50 [7] [ng/mL] | MIC50 [8] [ng/mL] | IC50 (A. fumigatus (NCPF2010)) | MIC (A. fumigatus ATCC 204305; ATCC204305, with BSA) [ng/mL] | MIC (A. fumigatus ATCC 204305; ATCC204305, without BSA) [ng/mL] | MIC [9] [ng/mL] | IC50 [10, 16] [ng/mL] | IC50 [10, 17] [ng/mL] | MIC [11] [ng/mL] | MIC [12] [ng/mL] | MIC [13] [ng/mL] | other results
1 | Cc1cc(N2CCN(c3ccc(C(=O)Nc4ccc(F)cc4)cc3)CC2)ccc1OC[C@@H]1CO[C@@](Cn2cncn2)(c2ccc(F)cc2F)C1 [PC945, 4-[4-(4-{[(3R,5R)-5-(2,4-difluorophenyl)-5-(1H-1,2,4-triazol-1-ylmethyl)oxolan-3-yl]methoxy}-3-methylphenyl)piperazin-1-yl]-N-(4-fluorophenyl)benzamide] | 6000 (≈ 8.79 µM) | 250 (≈ 0.366 µM) | 6.64 | > 9.00 | 81 (≈ 0.119 µM) | 0.1 (≈ 0.000146 µM) | 2000 (≈ 2.93 µM) | 2000 (≈ 2.93 µM) | 78 (≈ 0.114 µM) | 0.086 (≈ 0.000126 µM) | 8250 (≈ 12.1 µM) | 0.0047 µg/mL and 6.9 nM | 62.5 (≈ 0.0915 µM) | 250 (≈ 0.366 µM) | > 8000 | 3.7 (≈ 0.00542 µM) | 43 (≈ 0.063 µM) | > 8000 | > 8000 | 8 (≈ 0.0117 µM) | fold more potent than posaconazole at inhibiting hyphal growth ([4]; no washout): 4.5 fold; fold more potent than voriconazole at inhibiting hyphal growth ([4]; no washout): 110 fold; fold more potent than posaconazole, ergosterol production (A. fumigatus (NCPF2010)): 2.6 fold; fold more potent than voriconazole, ergosterol production (A. fumigatus (NCPF2010)): 14 fold; fold more potent than both voriconazole and posaconazole ([13]; C. neoformans): 2 fold; Median days of survival [14, 18]: 6 days; No. of survivors on day 7/total no. of mice [14, 18]: 4/8; survivors on day 7 (%) [14, 18]: 50%; Median days of survival [14, 19]: 6.5 days; No. of survivors on day 7/total no. of mice [14, 19]: 5/8; survivors on day 7 (%) [14, 19]: 63%; incidence of rolling behavior [14]: substantially inhibited; Median days of survival [14, 20]: Undefined; No. of survivors on day 7/total no. of mice [14, 20]: 10/16; survivors on day 7 (%) [14, 20]: 63%; difference spectra on titration against purified CYP51B (AfCYP51B): type II difference spectra; pKd (AfCYP51B; Kd2, AfCYP51B, modified two-site allosteric model): 6.49
2 | CC[C@@H]([C@H](C)O)n1ncn(-c2ccc(N3CCN(c4ccc(OC[C@@H]5CO[C@@](Cn6cncn6)(c6ccc(F)cc6F)C5)cc4)CC3)cc2)c1=O [Posaconazole, posaconazole] | 160 (≈ 0.228 µM) | 500 (≈ 0.713 µM) | 6.80 | > 9.00 | 81 (≈ 0.116 µM) | 0.45 (≈ 0.000642 µM) | >8000 | > 8000 | 93 (≈ 0.133 µM) | 2.2 (≈ 0.00314 µM) | 8130 (≈ 11.6 µM) | 0.012 µg/mL and 17 nM | 60 (≈ 0.0856 µM) | 30 (≈ 0.0428 µM) | 250 (≈ 0.357 µM) | 3.1 (≈ 0.00442 µM) | 46 (≈ 0.0656 µM) | > 8000 | > 8000 | 16 (≈ 0.0228 µM) | Hyphae Fold change [4]: 4.90 fold; Hyphae Fold change ([4]; listed as posaconazole): 4.9 fold; BEAS2B cells Fold change ([10]; washout versus no washout): 14.7 fold; Median days of survival [14, 19]: 5 days; No. of survivors on day 7/total no. of mice [14, 19]: 1/8; survivors on day 7 (%) [14, 19]: 13%; incidence of rolling behavior [14]: not; Median days of survival [14, 20]: 6 days; No. of survivors on day 7/total no. of mice [14, 20]: 7/16; survivors on day 7 (%) [14, 20]: 44%; Median days of survival [14, 21]: Undefined; No. of survivors on day 7/total no. of mice [14, 21]: 6/8; survivors on day 7 (%) [14, 21]: 75%; pKd (AfCYP51B; Kd1, AfCYP51B, PC945: modified two-site allosteric model, posaconazole: single tight-binding Kd): 7.92
